Results on seven compounds are retold here after PubChem BioAssay (NCI).

Among the test systems are ACHN renal; CAKI-1 renal; CCRF-CEM leukemia; K-562 leukemia; LOX IMVI melanoma; NCI/ADR-RES ovarian; OVCAR-5 ovarian; SNB-19 CNS; SR leukemia; T-47D breast.
What all share (test): NCI-60 cell line screen, 48 h

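48-hour exposure; five concentrations; linearly interpolated endpoints. GI50 = concentration required for 50% inhibition of growth. TGI: total growth inhibition.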

For `COC(=O)c1cc2c([nH]c3ccccc32)c(-c2nc3cc(N(S(=O)(=O)c4ccc(C)cc4)S(=O)(=O)c4ccc(C)cc4)c(OC)cc3cc2CO)n1`, the GI50 with ACHN renal was greater than 100 µM; in the experiment with CAKI-1 renal, greater than 100 µM; with CCRF-CEM leukemia it was 10.3 µM; in the experiment on K-562 leukemia, greater than 100 µM; in the experiment with LOX IMVI melanoma, greater than 100 µM; with NCI/ADR-RES ovarian, greater than 100 µM. Also, the GI50 in the experiment with OVCAR-5 ovarian was greater than 100 µM; with SNB-19 CNS it was 75 µM; in the experiment with SR leukemia it was 1.28 µM; in the experiment with T-47D breast, greater than 100 µM. In addition, the TGI is greater than 100 µM with ACHN renal; greater than 100 µM in the experiment with CAKI-1 renal; 32 µM in the experiment with CCRF-CEM leukemia; greater than 100 µM with K-562 leukemia; greater than 100 µM with LOX IMVI melanoma; greater than 100 µM in the experiment with NCI/ADR-RES ovarian. In addition, the TGI in the experiment with OVCAR-5 ovarian is greater than 100 µM; in the experiment on SNB-19 CNS, greater than 100 µM; with SR leukemia, 3.48 µM; with T-47D breast it was greater than 100 µM.
With `Cc1nn(-c2ccccc2)c2ncc3c(c12)C(=O)N(Cc1ccccc1)C3=O`, the GI50 in the experiment with ACHN renal is 3.57 µM; in the experiment on CAKI-1 renal, 2.43 µM; in the experiment on CCRF-CEM leukemia it was 1.99 µM; with K-562 leukemia, 3.73 µM; with LOX IMVI melanoma, 4.58 µM; with NCI/ADR-RES ovarian, 4.46 µM. In addition, the GI50 in the experiment with OVCAR-5 ovarian was greater than 100 µM; in the experiment with SNB-19 CNS it was 12.7 µM; in the experiment with SR leukemia, 5.86 µM; with T-47D breast, 4.86 µM. The TGI was 13.7 µM in the experiment with ACHN renal; 5.97 µM in the experiment with CAKI-1 renal; 16.8 µM in the experiment on CCRF-CEM leukemia; 41.9 µM with K-562 leukemia; greater than 100 µM in the experiment on LOX IMVI melanoma; greater than 100 µM with NCI/ADR-RES ovarian. Moreover, the TGI in the experiment on OVCAR-5 ovarian is greater than 100 µM; in the experiment with SNB-19 CNS it was greater than 100 µM; in the experiment on SR leukemia, greater than 100 µM; in the experiment with T-47D breast it was 20.7 µM.
Take `COc1cc(C2C3=C(COC3=O)N(CCO)c3cc4c(cc32)CCC4)cc(OC)c1OC` (stereo not given): the GI50 was 0.229 µM with ACHN renal; 0.484 µM in the experiment on CAKI-1 renal; 0.13 µM in the experiment with CCRF-CEM leukemia; 0.0955 µM in the experiment with K-562 leukemia; 0.166 µM in the experiment with LOX IMVI melanoma; 0.709 µM in the experiment with NCI/ADR-RES ovarian. Also, the GI50 in the experiment on OVCAR-5 ovarian was 0.164 µM; in the experiment with SNB-19 CNS, 0.0946 µM; with SR leukemia, 0.0692 µM; in the experiment on T-47D breast it was greater than 32.5 µM. The TGI in the experiment on ACHN renal is greater than 32.5 µM; in the experiment with CAKI-1 renal, greater than 32.5 µM; in the experiment with CCRF-CEM leukemia it was greater than 32.5 µM; in the experiment with K-562 leukemia, greater than 10.4 µM; in the experiment on LOX IMVI melanoma, greater than 32.5 µM; with NCI/ADR-RES ovarian, 4.45 µM. The TGI in the experiment with OVCAR-5 ovarian was greater than 32.5 µM; with SNB-19 CNS, 6.38 µM; in the experiment on SR leukemia, greater than 32.5 µM; in the experiment with T-47D breast, greater than 32.5 µM.
Take `Cn1cc(C2=C(c3cn(CCCSC(=N)N)c4ccccc34)C(=O)NC2=O)c2ccccc21`: the GI50 with ACHN renal was 4.42 µM; with CAKI-1 renal it was 7.68 µM; with CCRF-CEM leukemia, 0.971 µM; with K-562 leukemia, 2.67 µM; with LOX IMVI melanoma, 1.91 µM; in the experiment on NCI/ADR-RES ovarian, greater than 25 µM. Besides, the GI50 in the experiment with OVCAR-5 ovarian is 4.51 µM; in the experiment with SNB-19 CNS, 1.4 µM; in the experiment on SR leukemia, 0.585 µM; in the experiment on T-47D breast, 1.11 µM. For the same compound, the TGI was 9.31 µM in the experiment with ACHN renal; 23.4 µM in the experiment on CAKI-1 renal; 3.93 µM with CCRF-CEM leukemia; 6.78 µM in the experiment on K-562 leukemia; 5.45 µM in the experiment with LOX IMVI melanoma; greater than 25 µM in the experiment with NCI/ADR-RES ovarian. For the same compound, the TGI in the experiment with OVCAR-5 ovarian came to 18.6 µM; in the experiment on SNB-19 CNS it was 8.99 µM; in the experiment on SR leukemia it was 1.69 µM; in the experiment with T-47D breast, 5.12 µM.
With `CCN(CC)CCC(CNc1c2ccc(Cl)cc2nc2ccc(OC)cc12)c1ccccc1` (stereo not given), the GI50 in the experiment on ACHN renal was 1.05 µM; in the experiment on CAKI-1 renal, 1.3 µM; in the experiment with CCRF-CEM leukemia it was 1.1 µM; with K-562 leukemia, 0.337 µM; with LOX IMVI melanoma, 1 µM; with NCI/ADR-RES ovarian, 1.28 µM. The GI50 was 1.94 µM in the experiment on OVCAR-5 ovarian, 1.36 µM in the experiment with SNB-19 CNS, 0.323 µM in the experiment on SR leukemia and 2.25 µM in the experiment with T-47D breast. Besides, the TGI turned out to be 3.19 µM with ACHN renal; 3.62 µM in the experiment with CAKI-1 renal; 5.17 µM in the experiment with CCRF-CEM leukemia; 1.28 µM in the experiment on K-562 leukemia; 2.39 µM in the experiment on LOX IMVI melanoma; 5.12 µM in the experiment on NCI/ADR-RES ovarian. The TGI amounted to 5.64 µM in the experiment with OVCAR-5 ovarian, 4.2 µM in the experiment on SNB-19 CNS, 1.18 µM in the experiment on SR leukemia and 4.96 µM in the experiment with T-47D breast.
As to `CC[N+]1(C)CCC(O)(/C=C/c2ccccc2)C(C(=O)/C=C/c2ccccc2)C1` (stereo not given), the TGI in the experiment on ACHN renal is 25.4 µM; in the experiment on CAKI-1 renal, 3.42 µM; in the experiment with CCRF-CEM leukemia, 10.8 µM; in the experiment with K-562 leukemia it was 10.8 µM; with LOX IMVI melanoma, 7.79 µM; in the experiment with NCI/ADR-RES ovarian it was greater than 100 µM. Further, the TGI is 36.1 µM in the experiment with OVCAR-5 ovarian, 29.7 µM in the experiment on SNB-19 CNS, 6.68 µM in the experiment on SR leukemia and 40.4 µM in the experiment on T-47D breast.
Regarding `CCCC1C2=C(C(=O)OC2=O)C2C(CC)CC3=C(C(=O)OC3=O)C12` (stereo not given), the TGI with ACHN renal, with CAKI-1 renal, with CCRF-CEM leukemia, with K-562 leukemia, in the experiment with LOX IMVI melanoma and in the experiment with NCI/ADR-RES ovarian was greater than 100 µM each time. The TGI with OVCAR-5 ovarian, with SNB-19 CNS, with SR leukemia and with T-47D breast was greater than 100 µM throughout.
